The target in one experiment is T1, wild-type EGFR (Homo sapiens, UniProt P00533).
T1 construct: purchased Signalchem
Briefly: Enzymology experiment in vitro (HTRF/FRET kinase activity), wild-type EGFR. The class given is biochemical. As to conditions: HTRF KinEASE-TK, read-out: EGFR (WT) IC50. In a few lines:
(§1)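 Kinase reaction run 40 min at room temperature with peptide and ATP after a 10 min compound–enzyme preincubation. Phosphorylation read as HTRF signal after 1 h with Eu³⁺ antibody, XL665-streptavidin and EDTA (Cisbio KinEASE-TK).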

The target in experiment [1] is T2, L858R/T790M/C797S triple mutant EGFR (Homo sapiens, UniProt P00533, C797S/L858R/T790M).
T2 construct: purchased Signalchem
In words: Enzymology experiment in vitro (HTRF/FRET kinase activity), L858R/T790M/C797S triple mutant EGFR. The class given is biochemical. As to conditions: HTRF KinEASE-TK, read-out: EGFR (L858R/T790M/C797S) IC50. In a few lines: as §1
A general note: Time-resolved FRET reads energy transfer from a long-lived donor to a nearby acceptor.

Experiment [2] has as its system EGFR wild-type cell line A431. In words: Cell proliferation inhibition experiment (CellTiter-Glo), A431. The class given is cell-based. As to conditions: A431 cells, Cell Titer-Glo, read-out: A431 EGFR WT IC50. In a few lines:
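Luminescent CellTiter-Glo readout, 30 min at room temperature, after 72 h compound exposure at 37° C., 5% CO2 with 0.1% DMSO final. EGFR wild-type A431 cells were seeded at 800 per well and grown 24 h before dosing. IC50 derived from the dose-response.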

Experiment [3] has as its target Ba/F3 De119/T790M/C797S EGFR triple mutant cell line (Homo sapiens, UniProt P00533, T790M/C797S, cells depend on it, form not given). In words: Cell proliferation inhibition experiment (CellTiter-Glo), Ba/F3 De119/T790M/C797S. The class given is cell-based. To be noted: Ba/F3 Del19/T790M/C797S EGFR triple mutant cells, 72 hours, Cell Titer-Glo; read-out: Ba/F3 (Del19/T790M/C797S) IC50. A general note: In ATP-based viability assays light output follows the ATP content of the culture.

Experiment [4] concerns the target Ba/F3 L858R/T790M/C797S EGFR triple mutant cell line (Homo sapiens, UniProt P00533, T790M/C797S/L858R, cells depend on it). In words: Cell proliferation inhibition experiment (CellTiter-Glo), Ba/F3 L858R/T790M/C797S. As to conditions: 72 hours, Cell Titer-Glo, read-out: Ba/F3 (L858R/T790M/C797S) IC50. The class given is cell-based.

Like-named read-outs stand apart in the source and are kept apart here.

Chain of Ba/F3 De119/T790M/C797S EGFR triple mutant cell line (P00533 with tags, fused parts or gaps DEL746-750/T790M/C797S, form open): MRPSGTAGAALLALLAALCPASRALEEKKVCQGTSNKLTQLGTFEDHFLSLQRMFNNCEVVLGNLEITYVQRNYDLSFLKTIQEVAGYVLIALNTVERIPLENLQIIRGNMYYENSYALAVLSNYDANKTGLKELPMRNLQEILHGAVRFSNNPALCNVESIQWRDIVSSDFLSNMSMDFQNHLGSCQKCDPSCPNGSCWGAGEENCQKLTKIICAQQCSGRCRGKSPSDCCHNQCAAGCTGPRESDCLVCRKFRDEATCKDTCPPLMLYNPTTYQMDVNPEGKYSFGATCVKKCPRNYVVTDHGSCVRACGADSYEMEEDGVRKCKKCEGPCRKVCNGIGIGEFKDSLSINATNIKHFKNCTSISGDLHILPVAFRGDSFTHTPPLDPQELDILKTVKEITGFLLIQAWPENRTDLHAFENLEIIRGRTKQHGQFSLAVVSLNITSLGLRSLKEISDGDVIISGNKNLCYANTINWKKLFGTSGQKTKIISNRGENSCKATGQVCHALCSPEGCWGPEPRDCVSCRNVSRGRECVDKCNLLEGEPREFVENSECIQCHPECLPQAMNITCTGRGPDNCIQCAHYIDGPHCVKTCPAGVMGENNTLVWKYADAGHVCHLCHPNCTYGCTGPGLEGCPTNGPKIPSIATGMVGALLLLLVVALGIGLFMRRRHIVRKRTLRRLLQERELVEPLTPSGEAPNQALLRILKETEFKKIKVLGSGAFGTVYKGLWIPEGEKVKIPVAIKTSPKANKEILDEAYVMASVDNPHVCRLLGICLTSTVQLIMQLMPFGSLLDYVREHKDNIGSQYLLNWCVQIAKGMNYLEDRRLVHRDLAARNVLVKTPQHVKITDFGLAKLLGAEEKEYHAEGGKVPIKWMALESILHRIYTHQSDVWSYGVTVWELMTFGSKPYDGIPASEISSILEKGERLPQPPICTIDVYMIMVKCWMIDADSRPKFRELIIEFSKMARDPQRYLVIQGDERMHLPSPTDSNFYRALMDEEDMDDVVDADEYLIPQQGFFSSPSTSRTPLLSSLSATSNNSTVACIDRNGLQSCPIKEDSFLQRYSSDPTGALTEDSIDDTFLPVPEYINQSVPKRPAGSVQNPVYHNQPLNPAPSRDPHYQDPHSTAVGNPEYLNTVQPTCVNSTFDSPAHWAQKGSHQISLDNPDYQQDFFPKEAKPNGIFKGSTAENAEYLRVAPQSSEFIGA
T2 sequence (P00533 25-1210 T790M/C797S/L858R): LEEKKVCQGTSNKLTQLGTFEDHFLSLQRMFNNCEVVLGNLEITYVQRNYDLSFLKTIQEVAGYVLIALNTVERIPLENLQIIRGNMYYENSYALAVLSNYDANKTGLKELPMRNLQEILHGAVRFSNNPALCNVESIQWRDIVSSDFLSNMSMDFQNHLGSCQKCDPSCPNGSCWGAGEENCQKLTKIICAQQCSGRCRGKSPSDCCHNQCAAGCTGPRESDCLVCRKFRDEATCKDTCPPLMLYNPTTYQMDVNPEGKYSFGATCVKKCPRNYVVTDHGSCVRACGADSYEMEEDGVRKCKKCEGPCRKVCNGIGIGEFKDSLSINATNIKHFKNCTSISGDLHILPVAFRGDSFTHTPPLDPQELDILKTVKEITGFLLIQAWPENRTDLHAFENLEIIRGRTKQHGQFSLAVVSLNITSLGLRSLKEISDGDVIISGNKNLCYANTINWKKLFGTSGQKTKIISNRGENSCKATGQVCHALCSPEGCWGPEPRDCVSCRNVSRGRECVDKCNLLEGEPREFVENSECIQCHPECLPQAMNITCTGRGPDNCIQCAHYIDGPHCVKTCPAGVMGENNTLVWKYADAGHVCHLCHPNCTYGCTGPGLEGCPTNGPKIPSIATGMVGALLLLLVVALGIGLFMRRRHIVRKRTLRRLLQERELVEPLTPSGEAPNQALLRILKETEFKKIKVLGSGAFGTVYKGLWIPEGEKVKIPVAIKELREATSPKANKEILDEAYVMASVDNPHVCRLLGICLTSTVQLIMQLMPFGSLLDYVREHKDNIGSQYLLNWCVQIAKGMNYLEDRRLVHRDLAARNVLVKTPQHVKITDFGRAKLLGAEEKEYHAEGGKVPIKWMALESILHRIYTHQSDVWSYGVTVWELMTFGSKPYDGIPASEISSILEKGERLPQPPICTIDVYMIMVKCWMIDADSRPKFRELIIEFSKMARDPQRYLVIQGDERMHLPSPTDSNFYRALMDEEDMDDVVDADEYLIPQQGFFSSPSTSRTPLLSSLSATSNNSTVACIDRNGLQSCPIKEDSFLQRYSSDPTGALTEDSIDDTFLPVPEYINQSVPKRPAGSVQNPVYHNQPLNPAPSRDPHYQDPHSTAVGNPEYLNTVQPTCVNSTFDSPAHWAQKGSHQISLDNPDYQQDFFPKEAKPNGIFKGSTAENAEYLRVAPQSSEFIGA
T1 sequence (P00533 25-1210): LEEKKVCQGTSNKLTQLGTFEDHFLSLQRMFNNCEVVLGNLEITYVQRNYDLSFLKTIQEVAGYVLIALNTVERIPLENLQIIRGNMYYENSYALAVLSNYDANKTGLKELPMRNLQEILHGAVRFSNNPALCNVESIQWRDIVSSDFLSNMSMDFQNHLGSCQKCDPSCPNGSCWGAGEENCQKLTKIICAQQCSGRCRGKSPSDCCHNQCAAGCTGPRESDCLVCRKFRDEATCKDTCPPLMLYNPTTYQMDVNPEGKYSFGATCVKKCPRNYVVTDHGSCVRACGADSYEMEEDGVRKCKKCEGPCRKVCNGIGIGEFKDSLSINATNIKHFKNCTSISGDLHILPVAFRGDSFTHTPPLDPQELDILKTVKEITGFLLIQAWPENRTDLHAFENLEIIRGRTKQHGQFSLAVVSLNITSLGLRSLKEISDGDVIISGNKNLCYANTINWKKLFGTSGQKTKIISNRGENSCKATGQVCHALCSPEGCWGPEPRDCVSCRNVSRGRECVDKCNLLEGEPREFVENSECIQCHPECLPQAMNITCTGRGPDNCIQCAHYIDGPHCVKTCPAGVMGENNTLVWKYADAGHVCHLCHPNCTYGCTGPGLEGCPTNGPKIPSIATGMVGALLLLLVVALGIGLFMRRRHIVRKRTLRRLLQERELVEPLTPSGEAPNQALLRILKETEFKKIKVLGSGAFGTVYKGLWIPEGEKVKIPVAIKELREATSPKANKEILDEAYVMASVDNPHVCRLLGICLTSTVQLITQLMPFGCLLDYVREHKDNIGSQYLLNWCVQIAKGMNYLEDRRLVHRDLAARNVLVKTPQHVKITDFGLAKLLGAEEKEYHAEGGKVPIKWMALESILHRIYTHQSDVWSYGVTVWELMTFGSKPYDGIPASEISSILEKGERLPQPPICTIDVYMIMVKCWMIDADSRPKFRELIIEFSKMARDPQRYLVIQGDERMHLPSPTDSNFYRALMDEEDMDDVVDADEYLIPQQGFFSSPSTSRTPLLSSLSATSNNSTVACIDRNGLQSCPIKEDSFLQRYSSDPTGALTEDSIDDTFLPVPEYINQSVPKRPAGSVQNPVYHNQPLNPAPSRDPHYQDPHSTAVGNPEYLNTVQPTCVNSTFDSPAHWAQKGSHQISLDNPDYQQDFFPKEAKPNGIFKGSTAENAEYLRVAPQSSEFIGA
Chain of Ba/F3 L858R/T790M/C797S EGFR triple mutant cell line (P00533 whole entry T790M/C797S/L858R): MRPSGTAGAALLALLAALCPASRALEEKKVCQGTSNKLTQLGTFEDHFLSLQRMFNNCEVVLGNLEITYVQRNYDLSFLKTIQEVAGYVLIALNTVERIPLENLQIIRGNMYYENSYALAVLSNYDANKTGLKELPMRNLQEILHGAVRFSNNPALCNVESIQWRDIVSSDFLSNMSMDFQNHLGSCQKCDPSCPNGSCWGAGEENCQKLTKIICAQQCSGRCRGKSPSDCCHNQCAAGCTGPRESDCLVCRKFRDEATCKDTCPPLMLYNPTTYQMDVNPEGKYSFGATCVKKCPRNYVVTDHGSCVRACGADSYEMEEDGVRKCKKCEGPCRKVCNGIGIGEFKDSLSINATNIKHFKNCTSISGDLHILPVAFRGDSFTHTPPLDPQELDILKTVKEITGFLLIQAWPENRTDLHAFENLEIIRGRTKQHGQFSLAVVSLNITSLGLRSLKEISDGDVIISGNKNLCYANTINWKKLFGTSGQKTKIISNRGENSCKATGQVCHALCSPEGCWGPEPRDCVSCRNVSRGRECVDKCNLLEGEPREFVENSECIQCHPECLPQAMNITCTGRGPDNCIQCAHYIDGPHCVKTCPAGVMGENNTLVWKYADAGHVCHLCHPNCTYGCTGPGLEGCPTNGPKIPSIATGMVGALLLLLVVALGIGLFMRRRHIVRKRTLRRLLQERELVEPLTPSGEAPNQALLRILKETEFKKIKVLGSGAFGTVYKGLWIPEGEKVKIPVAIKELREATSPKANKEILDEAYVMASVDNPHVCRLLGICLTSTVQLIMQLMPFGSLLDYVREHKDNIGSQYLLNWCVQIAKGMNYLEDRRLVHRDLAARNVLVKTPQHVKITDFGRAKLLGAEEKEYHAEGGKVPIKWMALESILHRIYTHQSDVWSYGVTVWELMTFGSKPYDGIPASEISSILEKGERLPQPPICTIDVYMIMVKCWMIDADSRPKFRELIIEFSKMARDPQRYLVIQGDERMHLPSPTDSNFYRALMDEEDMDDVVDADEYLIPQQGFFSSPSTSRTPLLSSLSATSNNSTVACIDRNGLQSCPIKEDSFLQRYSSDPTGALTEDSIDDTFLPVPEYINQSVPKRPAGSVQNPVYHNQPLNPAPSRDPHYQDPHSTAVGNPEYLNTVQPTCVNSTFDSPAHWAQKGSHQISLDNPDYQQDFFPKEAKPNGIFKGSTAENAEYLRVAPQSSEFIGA

Consider `COc1cc(N2CCO[C@@H](C)C2)c(-c2cnn(C)c2)cc1Nc1ncc(Br)c(Nc2ccc3nccnc3c2P(C)(C)=O)n1` [compound 170], for which the IC50 on wild-type EGFR worked out at 4.94 nM; in experiment [1] it was 0.45 nM; in experiment [2] (Homo sapiens, A-431, 72 h) it was 280 nM. The GI50 came out at 1.8 nM in experiment [3] and 8.14 nM in experiment [4].

With `COc1cc(N2CCC3(CCOCC3)CC2)c(-c2cnn(C)c2)cc1Nc1ncc(Br)c(Nc2ccc3nccnc3c2P(C)(C)=O)n1` [compound 215], the IC50 on wild-type EGFR is 7.3 nM; in experiment [1], 0.25 nM; in experiment [2] (Homo sapiens, A-431, 72 h) it was 227 nM. Besides, the GI50 worked out at 2.23 nM in experiment [3] and 5.58 nM in experiment [4].

As for `COCC1CCCN(c2cc(OC)c(Nc3ncc(Br)c(Nc4ccc5nccnc5c4P(C)(C)=O)n3)cc2-c2cnn(C)c2)C1` (stereo not shown) [compound 162], the IC50 at wild-type EGFR was found to be 20.6 nM; in experiment [1], 2.28 nM; in experiment [2] (Homo sapiens, A-431, 72 h) it was 518 nM. Also, the GI50 in experiment [3] came to 6.2 nM; in experiment [4], 18 nM.

Turning to `COc1cc(N2CCC(N3CCOC(C)C3)CC2)c(-c2cnn(C)c2)cc1Nc1ncc(Br)c(Nc2ccc3nccnc3c2P(C)(C)=O)n1` (racemic) [compound 148, (6-((5-bromo-2-((2-methoxy-5-(1-methyl-1H-pyrazol-4-yl)-4-(4-(2-methylmorpholinyl)piperidin-1-yl)phenyl)amino)pyrimidin-4-yl)amino)quinoxalin-5-yl)dimethylphosphine oxide], the IC50 at wild-type EGFR was 5.04 nM; in experiment [1], 0.64 nM; in experiment [2] (Homo sapiens, A-431, 72 h) it was 124 nM. The GI50 in experiment [3] came out at 0.7 nM; in experiment [4], 2.78 nM.

For `COc1cc(N2CCN3CCCC[C@@H]3C2)c(-c2cnn(C)c2)cc1Nc1ncc(Br)c(Nc2ccc3nccnc3c2P(C)(C)=O)n1` [compound 175], the IC50 came to 3.1 nM on wild-type EGFR; 0.33 nM in experiment [1]; 41.3 nM in experiment [2] (Homo sapiens, A-431, 72 h). Moreover, the results for the GI50 in experiment [3] and in experiment [4] were 1.7 nM and 5.38 nM, respectively.

As for `COc1cc(N2CCN(CCN3CCOCC3)CC2)c(-c2cnn(C)c2)cc1Nc1ncc(Br)c(Nc2ccc3nccnc3c2P(C)(C)=O)n1` [compound 191], the IC50 on wild-type EGFR was found to be 2.44 nM; in experiment [1], 0.23 nM; in experiment [2] (Homo sapiens, A-431, 72 h), 70 nM. Moreover, the GI50 in experiment [3] turned out to be 3.47 nM; in experiment [4] it was 11.4 nM.

Turning to `COc1cc(N2CCC(C)(O)CC2)c(-c2cnn(C)c2)cc1Nc1ncc(Br)c(Nc2ccc3nccnc3c2P(C)(C)=O)n1` [compound 142], the IC50 at wild-type EGFR amounted to 1.16 nM; in experiment [1] it was 0.25 nM; in experiment [2] (Homo sapiens, A-431, 72 h), 196 nM. Also, the GI50 is 0.34 nM in experiment [3] and 2.89 nM in experiment [4].

As to `COc1cc(N2CCN3CCCC3C2)c(-c2cnn(C)c2)cc1Nc1ncc(Br)c(Nc2ccc3nccnc3c2P(C)(C)=O)n1` (stereo not shown) [compound 130], the IC50 was 1.44 nM on wild-type EGFR; 0.05 nM in experiment [1]; 73.5 nM in experiment [2] (Homo sapiens, A-431, 72 h). Besides, the GI50 in experiment [3] turned out to be 1 nM; in experiment [4], 9 nM.

As to `COc1cc(N2CCOCC2)c(-c2cn(C)nc2C)cc1Nc1ncc(Br)c(Nc2ccc3nccnc3c2P(C)(C)=O)n1` [compound 43], the IC50 on wild-type EGFR worked out at 95.3 nM; in experiment [1], 0.47 nM; in experiment [2] (Homo sapiens, A-431, 72 h), 880 nM. Moreover, the GI50 in experiment [3] is 16.4 nM; in experiment [4], 29.7 nM.

As to `COc1cc(N2CCN(C3(C)COC3)CC2)c(-c2cnn(C)c2)cc1Nc1ncc(Br)c(Nc2ccc3nccnc3c2P(C)(C)=O)n1` [compound 184], the IC50 is 2.23 nM on wild-type EGFR; 0.24 nM in experiment [1]; 218 nM in experiment [2] (Homo sapiens, A-431, 72 h). Moreover, the GI50 in experiment [3] was 2.28 nM; in experiment [4], 5.67 nM.

Take `COc1cc(N2CC(C)OC(C)C2)c(-c2cnn(C)c2)cc1Nc1ncc(Br)c(Nc2ccc3nccnc3c2P(C)(C)=O)n1` (single isomer, unassigned) [155b]: the figures for the IC50 (on wild-type EGFR; in experiment [1]; in experiment [2] (72 hours)) were 21.6 nM, 0.8 nM and 213 nM, respectively. Besides, the GI50 is 1.63 nM in experiment [3] and 7.55 nM in experiment [4].

On to `COc1cc(N2CCC3(CC2)CN(C)CC(C)O3)c(-c2cnn(C)c2)cc1Nc1ncc(Br)c(Nc2ccc3nccnc3c2P(C)(C)=O)n1` (racemic) [compound 217, (6-((5-Bromo-2-((4-(2,4-dimethyl-1-oxa-4,9-diazaspiro[5.5]undecan-9-yl)-2-methoxy-5-(1-methyl-1H-pyrazol-4-yl)phenyl)amino)pyrimidin-4-yl)amino)quinoxalin-5-yl)dimethylphosphine oxide], for which the IC50 is 3.87 nM on wild-type EGFR; 0.95 nM in experiment [1]; 60.5 nM in experiment [2] (Homo sapiens, A-431, 72 h). Also, the GI50 amounted to 0.94 nM in experiment [3] and 3.29 nM in experiment [4].

With `COc1cc(N2CCC3(CC2)CCN(C(C)C)CC3)c(-c2cnn(C)c2)cc1Nc1ncc(Br)c(Nc2ccc3nccnc3c2P(C)(C)=O)n1` [compound 228], the IC50 on wild-type EGFR turned out to be 1.04 nM; in experiment [1], 0.48 nM; in experiment [2] (Homo sapiens, A-431, 72 h), 44.8 nM. Besides, the GI50 in experiment [3] turned out to be 4.58 nM; in experiment [4], 8.5 nM.

In the case of `COc1cc(N2CCC3(CCN(CCF)CC3)CC2)c(-c2cnn(C)c2)cc1Nc1ncc(Br)c(Nc2ccc3nccnc3c2P(C)(C)=O)n1` [compound 133, (6-((5-bromo-2-((4-(9-(2-fluoroethyl)-3,9-diazaspiro[5.5]undecan-3-yl)-2-methoxy-5-(1-methyl-1H-pyrazol-4-yl)phenyl)amino)pyrimidin-4-yl)amino)quinoxalin-5-yl)dimethylphosphine oxide], the IC50 at wild-type EGFR was found to be 0.78 nM; in experiment [1] it was 0.15 nM; in experiment [2] (Homo sapiens, A-431, 72 h) it was 82.8 nM. Also, the GI50 came to 0.64 nM in experiment [3] and 2.85 nM in experiment [4].

Consider `COc1cc(N2CCN(C3CC3)CC2)c(-c2cnn(C)c2)cc1Nc1ncc(Br)c(Nc2ccc3nccnc3c2P(C)(C)=O)n1` [compound 102], for which the IC50 turned out to be 1.49 nM on wild-type EGFR; 0.23 nM in experiment [1]; 108 nM in experiment [2] (Homo sapiens, A-431, 72 h). Further, the GI50 was 0.76 nM in experiment [3] and 2.02 nM in experiment [4].

For the compound `COc1cc(N2CCC(C)(OC)CC2)c(-c2c[nH]n(C)c2=O)cc1Nc1ncc(Br)c(Nc2ccc3nccnc3c2P(C)(C)=O)n1` [compound 241], the IC50 was 30.1 nM at wild-type EGFR; 0.13 nM in experiment [1]; 182 nM in experiment [2] (Homo sapiens, A-431, 72 h). The GI50 in experiment [3] was 2.92 nM; in experiment [4], 12.3 nM.

In the case of `COc1cc(N2CCC3(CCN(CC4(C#N)CC4)CC3)CC2)c(-c2cnn(C)c2)cc1Nc1ncc(Br)c(Nc2ccc3nccnc3c2P(C)(C)=O)n1` [compound 244, 1-((9-(4-((5-Bromo-4-((5-(dimethylphosphoryl)quinoxalin-6-yl)amino)pyrimidin-2-yl)amino)-5-methoxy-2-(1-methyl-1H-pyrazol-4-yl)phenyl)-3,9-diazaspiro[5.5]undecan-3-yl)methyl)cyclopropane-1-carbonitrile], the IC50 at wild-type EGFR was found to be 2.74 nM; in experiment [1] it was 0.78 nM; in experiment [2] (Homo sapiens, A-431, 72 h) it was 125 nM. Besides, the GI50 worked out at 1.19 nM in experiment [3] and 2.43 nM in experiment [4].

Take `COc1cc(N2CCOCC2)c(-c2cnn(C)c2)cc1Nc1ncc(Br)c(Nc2ccc3c(c2P(C)(C)=O)CC3)n1` [compound 85]: the IC50 at wild-type EGFR is 9.06 nM; in experiment [1] it was 0.11 nM; in experiment [2] (Homo sapiens, A-431, 72 h), 381 nM. The GI50 is 6.15 nM in experiment [3] and 9.29 nM in experiment [4].

`COc1cc(N2CCC3(CCN(CCF)CC3)CC2)c(-c2cnn(C)c2)cc1Nc1ncc(Br)c(Nc2ccccc2P(C)(C)=O)n1` [compound 230]: the IC50 on wild-type EGFR is 12 nM; in experiment [1] it was 0.29 nM; in experiment [2] (Homo sapiens, A-431, 72 h), 126 nM. Moreover, the results for the GI50 in experiment [3] and in experiment [4] were 4.47 nM and 10.1 nM, respectively.

For the compound `COc1cc(N2CCC(F)CC2)c(-c2cnn(C)c2)cc1Nc1ncc(Br)c(Nc2ccc3nccnc3c2P(C)(C)=O)n1` [compound 124], the IC50 at wild-type EGFR was determined as 8.35 nM; in experiment [1] it was 1.2 nM; in experiment [2] (Homo sapiens, A-431, 72 h), 516 nM. Moreover, the GI50 in experiment [3] was 3.93 nM; in experiment [4], 7.93 nM.

For `COc1cc(N2CCC3(CCN(C)CC3)CC2)c(-c2cnn(C)c2)cc1Nc1ncc(Br)c(Nc2cc3c(cc2N(C)S(C)(=O)=O)CC3)n1` [compound 196], the IC50 at wild-type EGFR worked out at 3.35 nM; in experiment [1], 0.59 nM; in experiment [2] (Homo sapiens, A-431, 72 h), 356 nM. For the same compound, the values for the GI50 in experiment [3] and in experiment [4] were 12.3 nM and 20.8 nM, respectively.

For the compound `COc1nc(N2CCC3(CCN(CCF)CC3)CC2)c(-c2cnn(C)c2)cc1Nc1ncc(Br)c(Nc2ccc3nccnc3c2P(C)(C)=O)n1` [compound 249], the IC50 is 3.31 nM at wild-type EGFR; 0.4 nM in experiment [1]; 85 nM in experiment [2] (Homo sapiens, A-431, 72 h). The GI50 in experiment [3] turned out to be 2.55 nM; in experiment [4], 8.95 nM.

Regarding `COc1cc(N2CCN(CCF)CC2)c(-c2cnn(C)c2)cc1Nc1ncc(Br)c(Nc2ccc3nccnc3c2P(C)(C)=O)n1` [compound 103], the IC50 came to 1.57 nM on wild-type EGFR; 0.13 nM in experiment [1]; 152 nM in experiment [2] (Homo sapiens, A-431, 72 h). The GI50 in experiment [3] was 0.51 nM; in experiment [4], 5.02 nM.

The values are drawn from patent US20230219986A1, “NOVEL AMINOPYRIMIDINE EGFR INHIBITOR” (QILU PHARMACEUTICAL CO., LTD., priority 2020, published 2023).
